The record followed here is patent publication US10766855B2, “Hydroxamate triterpenoid derivatives” (VIVACELL BIOTECHNOLOGY ESPANA S.L., priority 2016, dated 2020).

Experiment [1] deals with NF-κB. In words: NF-κB inhibition in NIH-3T3-KBF-Luc cells stimulated with TNFα. The experiment is classed as cell-based. As to conditions: TNFα 30 ng/ml, 6 h. On the procedure:
To further study the target selectivity of the compounds described in the present invention the effect of the natural triterpenoids (OA; BA, UA, and MA), compounds II to XV of Formula (I) disclosed in present invention, and of comparative compound CDDO-Me on NF-κB inhibition, STAT-3 inhibition, Nrf2 activation and TGR5 activation was analyzed. For this study cell lines NIH-3T3-KBF-Luc, HeLa-STAT3-Luc, HaCaT-ARE-Luc and CHO-TGR5-CRE-luc were used respectively. The NIH3T3-KBF-Luc cell line stably transfected with the plasmid KBF-Luc plasmid, which contains three copies of NF-κB binding site (from major histocompatibility complex promoter), fused to a minimal simian virus 40 promoter driving the luciferase gene. Cells (1×10^4/well) were seeded in 96-well plates, treated with increasing concentrations of the compounds II to XV for 15 min and then stimulated with 30 ng/ml TNFα. After 6 h the luciferase activity in the cell lysates was measured as indicated above.

For experiment [2], the system named is TGR5. Description: TGR5 activation in CHO-TGR5-CRE-Luc cells. The experiment is classed as cell-based. As to conditions: 6 h.
Description: The CHO-TGR5-CRE-Luc cells stably transfected with the pTGR5 and CRE-Luc. […] As a positive control the cells were treated with 10 μM of LCA (lithocholic acid). Luciferase activity in the cell lysates was measured as indicated above and the EC50 calculated (Table III).
Experiment [3] deals with HIF-2α. In words: HIF-2α stabilization in hIPCs (Western blot). The experiment is classed as cell-based, human. Conditions: increasing concentrations, 3 h. The method, then:
Stimulation of human Islet-Derived Precursor Cells (hIPCs) with increasing concentrations of compound VII or with DFX (150 μM) during 3 h, and the expression of HIF-2α, PHD3 and β-actin determined by Western blots.
Since PDH2 and PDH3 also regulate the expression of HIF-2α, the effect of compound VII on HIF-2α stabilization in Human Islet-Derived Precursor Cells (hIPCs) obtained from Innoprot SL (Spain) (reference p10472) was investigated. hIPCs were stimulated with the increasing concentrations of compound VII or with DFX (150 μM) during 3 h. After that, proteins isolation and western blots were performed as in FIG. 3. The antibodies against HIF-2α (ab8365) and PHD3 (ab30782) were from Abcam (Cambrigde, UK), and the antibody anti-β-actin (AC-74) was purchased from Sigma-Aldrich (Saint Louis, Mo., USA). (FIG. 5).
On the technique in general: Immunoblotting shows a protein as a band on a membrane.

The subject of experiment [4] is Erythropoietin (EPO). In words: Plasma erythropoietin (EPO) levels in mice (ELISA). It counts as in vivo, mouse. As to conditions: C57BL/6 male mice, i.p., 4 hours after treatment; compound VII 30 and 60 mg/kg, Betulinic acid 60 mg/kg. On the procedure:
EPO in plasma measured using a mouse EPO ELISA kit in C57BL/6 male mice administered with compound VII (30 mg/kg or 60 mg/kg) or betulinic acid (BA) (60 mg/kg) intraperitoneally. […] Data are expressed as mean±SEM (n=3).
Erythropoietin (EPO) is one of the earliest described and most sensitive HIF target genes; being positively regulated at the transcription level. Here, the ability of compound VII to regulated EPO levels in vivo was examined. Sixteen-week-old C57BL/6 male mice were treated intraperitoneally (i.p.) with Betulinic Acid (60 mg/kg) or compound VII (30 mg/kg or 60 mg/kg). Blood samples were taken under general anaesthesia 4 hours after treatment and the circulating levels of EPO in plasma were quantified using a mouse EPO ELISA kit (R&D Systems) according to manufacturer's instructions. EPO values represent the mean±SEM (n=3).
A general note: An ELISA detects its analyte on a solid surface through an enzyme-linked reagent.

Experiment [5] concerns STAT3. In words: STAT3 inhibition in HeLa-STAT3-Luc cells stimulated with IFN-γ. The experiment is classed as cell-based. As to conditions: IFN-γ 25 IU/ml, 6 h. The method, then:
(§1) The HeLa-STAT3-luc cells stably transfected with the plasmid 4×M67 pTATA TK-Luc. Cells (20×10^3 cells/ml) were seeded in 96-well plates, treated with increasing concentrations of the compounds II to XIV, and of comparative compound CDDO-Me, for 15 min and then stimulated with IFN-γ 25 IU/ml. After 6 h the luciferase activity in the cell lysates was measured as indicated above. […] The HaCaT-ARE-Luc cell line contains the Nqo1 Antioxidant Response Element (ARE)-Luc reporter plasmid. ARE is activated by all members of the CNC family of factors (Nrf1, Nrf2, Nrf3 and p45 NF-E2). The cells were cultivated in 96-well plates at the concentration of 25×10^3 cells/well in a CO2 incubator at 37° C. For induction of Nrf2 activation the cells were treated with increasing concentrations of the compounds II to XV, and of comparative compound CDDO-Me, for 6 h. As a positive control the cells were treated with 0.02 mM of the antioxidant Tert-butyl-hydroquinone (TBHQ). Luciferase activity in the cell lysates was measured as indicated above and the EC50 calculated (Table III). The CHO-TGR5-CRE-Luc cells stably transfected with the pTGR5 and CRE-Luc. The CRE-responsive luciferase construct encodes the firefly luciferase reporter gene under the control of a minimal (m)CMV promoter and tandem repeats of the CRE transcriptional response element (TRE) and is useful to monitor cAMP signaling pathways activated by TGR5 agonists. Cells (1×10^4/well) were seeded in 96-well plates, treated with increasing concentrations of the compounds II to XV and CDDO-Me, for 6 h. As a positive control the cells were treated with 10 μM of LCA (lithocholic acid). Luciferase activity in the cell lysates was measured as indicated above and the EC50 calculated (Table III).

For experiment [6], the system named is Nrf2. In words: Nrf2 activation/inhibition in HaCaT-ARE-Luc cells. It counts as cell-based. Conditions: 6 h. On the procedure:
as §1

Experiment [7] relates to Nrf2. Description: Nrf2 activation/inhibition in HaCaT-ARE-Luc cells. The experiment is classed as cell-based.
Experiment [8] relates to HUVEC. Description: Endothelial cell tube formation (angiogenesis) in HUVEC co-cultured with fibroblasts. The experiment is classed as cell-based, human. As to conditions: 1 μM, 7 days. On the procedure:
Measurements of endothelial cell tube formation as a model of angiogenesis in green fluorescent Human endothelial vascular cells (HUVEC) co-cultured with primary fibroblasts and stimulated separately with compound VII (1 μM), rhFGF (10 ng/ml) and VEGFA (10 ng/ml) for 7 days. Values represent the mean±SEM (n=3).
To test the functional consequences of compound VII stimulation in a physiological model, endothelial cell tube formation was measured as a model of angiogenesis. CellPlayer™ GFP AngioKit-96 (Essen BioScience Inc., Welwyn Garden City, UK) was supplied as growing co-cultures of human matrix (normal human dermal fibroblast, NHDF) and endothelial cells (HUVEC) at the earliest stages of tubule formation. CellPlayer 96-well kinetic angiogenesis assay was performed according to the manufacturer's protocol. Briefly, lentivirally infected green fluorescent protein (GFP)-HUVECs were cocultured with normal human dermal fibroblasts in a 96-well microplate. The plate was placed in IncuCyte, and images were automatically acquired in both phase and fluorescence every 6 hours for 7 days. […] Tube formation over the 7-day assay was quantified using the Essen BioScience Angiogenesis Analysis Module. […] Briefly, the fluorescent images were analyzed to generate a segmentation mask closely resembling the in vitro network. […]

For the compound `C=C(C)[C@@H]1CC[C@]2(C(=O)NO)CC[C@]3(C)[C@H](CC[C@@H]4[C@@]5(C)CC[C@H](O)C(C)(C)[C@@H]5CC[C@]43C)[C@@H]12` [Compound VII, (3β) 3-Hydroxy-N-hydroxy-lup-20(29)-en-28-amide], the IC50 in experiment [1], in experiment [5] and in experiment [7] was over 50 µM throughout. Moreover, the EC50 in experiment [2] and in experiment [6] was over 50 µM in each case. Also, the HIF-2α expression result in experiment [3] is “stabilized HIF-2α expression”. In experiment [3], the “expression of PHD3” value is given as “without affecting the expression of PHD3”. Also, the “circulating EPO plasma levels” value in experiment [4] is given as “strongly increased”. For the same compound, in experiment [8], the “network length in HUVEC cells” value was “increased significantly the network length”.
